US20140356383A1, “ADMINISTRATION OF AN ANTI-GCC ANTIBODY-DRUG CONJUGATE AND A DNA DAMAGING AGENT IN THE TREATMENT OF CANCER” (priority 2013, published 2014)

Experiments:
[1] = system: PHTX-9c primary human colon tumor xenograft; test: Single agent antitumor activity in PHTX-9c (PHTX-09c) primary human colon tumor xenograft
Procedure: Female CB-17 SCID mice (eight weeks old) were inoculated subcutaneously (SC) into the flank with PHTX-9c tumor fragments (2 mm×2 mm). Tumor growth was monitored twice per week using vernier calipers and the mean tumor volume was calculated using the formula (0.5×[length×width^2]). When the mean tumor volume reached approximately 150 mm^3 (Study A) or 160 mm^3 (Study B), animals were randomized into treatment groups (n=10/group for Study A and n=9/group for Study B).
Doses were administered on Days 1, 8, and 15 for the QW schedule and Days 1, 4, 8, 11, 15, and 18 for the BIW schedule. […] The equivalent dose of linker+MMAE is 4% of the 5F9-vcMMAE dose. These calculations are based on a mean 3.9 MMAE molecules per antibody and a free antibody molecular weight of 150 kD. Actual antibody molecular weight will vary slightly due to degree of glycosylation.
Tumor volume and body weight were measured twice weekly and were continued beyond the treatment period to measure regrowth kinetics, as evidenced by tumor growth delay (TGD). Tumor volume measurements were continued until tumor volume reached 10% of the body weight in a single mouse within a treatment group, at which time the group was terminated. The percentage of tumor growth inhibition (TGI) ([mean tumor volume of the control group—mean tumor volume of a treated group]/mean tumor volume of the control group; a T/C ratio) was determined on Day 20. The T/C ratios across a treatment group were compared to the T/C ratios of the control group using a two-tailed Welch's t-test.
The differences in the tumor growth trends over time between pairs of treatment groups were assessed using linear mixed effects regression models. These models account for the fact that each animal was measured at multiple time points. A separate model was fit for each comparison, and the areas under the curve (AUC) for each treatment group were calculated using the predicted values from the model. The percent decrease in AUC (dAUC) relative to the reference group was then calculated.
The 5F9 vcMMAE immunoconjugate was tested for single agent anti-tumor activity in the four primary human tumor xengraft models at varying concentrations in order to explore whether GCC expression levels played a role in tumor sensitivity. […] Free-MMAE was also used as a negative control.

[2] = system: PHTX-17c primary human mCRC tumor xenograft; test: 5F9 vcMMAE single agent efficacy in PHTX-17c; assay type: in vivo, SCID mice
[3] = system: PHTX-17c s.c. xenograft; test: MLN0264 and CPT-11 in PHTX-17C s.c. xenografts (Study CPGC-11-EF06); assay type: in vivo, CB-17 SCID mice
Procedure: (§1) Tumor volume was calculated using the formula: […]

[4] = system: PHTX-21c s.c. xenograft; test: MLN0264 and 5-Fluorouracil in PHTX-21C s.c. xenografts (Study CPGC-11-EF01); assay type: in vivo, CB-17 SCID mice; details: for dAUC: reference vehicle
Procedure: as §1

[5] = system: PHTX-249 Pa primary human pancreatic tumor xenograft; test: Single-agent 5F9 vcMMAE in PHTX-249 Pa pancreatic xenograft; assay type: in vivo, mice
Source text: The purpose of this study was to evaluate in vivo anti-tumor activity induced by combined administration of the 5F9 vcMMAE immunoconjugate (sometimes referred to herein as “MLN0264”) and gemcitabine in mouse xenograft primary human tumor explants (PHTX models of pancreatic cancer. These models included tumor tissue from patients with wild-type and mutant KRAS. Five pancreatic PHTX were generated by Champions Oncology (Hackensack, N.J.) using their CTG platform. 2 PHTX models were developed in-house. GCC expression was evaluated in each of the 7 PHTX models using the automated IHC assay described above.
In vivo anti-tumor studies of single-agent 5F9 vcMMAE immunoconjugate was conducted in all seven of the pancreatic subcutanreous xenograft mouse models. Animals were administered vehicle, free MMAE at 0.135 mg/kg once weekly (QW), a non-GCC targeting ADC at 7.5 mg/kg QW, or 5F9 vcMMAE at 3.75 or 7.5 mg/kg QW. The results for single agent activity of the immunoconjugate in PHTX-215 Pa and PHTX-249 Pa models is shown in FIGS. 15A and 15B, respectively.

[6] = system: PHTX-215 Pa s.c. xenograft; test: 5F9 vcMMAE and gemcitabine in PHTX-215 Pa s.c. xenografts (Study CPGC-13-EF10); assay type: in vivo, CB-17 SCID mice; details: PHTX-215 Pa s.c. xenograft, CB-17 SCID mice, reference vehicle
Procedure: Day D0 was the first day of treatment.
as §1
Table 77A the annotation table for group symbols. […] A negative dAUC is interpreted as an increase in AUC relative to the reference. It is important to evaluate not only the P value, but also the dAUC. Comparisons with significant P values, but small dAUC values, may not be of interest.

[7] = system: PHTX-21c s.c. xenograft; test: MLN0264 and CPT-11 in PHTX-21C s.c. xenografts (Study CPGC-11-EF04)
Procedure: The endpoints for each treatment group was either a) tumor volume reaches 10% body weight; or b) body weight loss of >20%. The projected tumor volume at the study initiation date was 200 mm^3.
Not greater than one day prior to dosing, all animals were weighed to the nearest gram and grouped. Dosing solutions were vortexed prior to each administration to ensure correct delivery of compound. Animals received approximately 0.1 ml doses administered I.V. using a 1 cc syringe, 27-30 gauge, ½-¾ inch in length.
Tumor volume measurements were obtained twice per week using Vernier calipers (0.01 mm). Tumor volume was calculated using the formula:
Efficacy was evaluated in terms of % tumor growth inhibition (TGI) and tumor growth delay (TGD). TGI was assessed on an arbitrary day (when the maximum tumor volume (MTV of the control treatment group reaches the maximum allowable tumor volume), using the following formula:
TGD was assessed by calculating T−C, where T=mean time (in days) for treatment group tumors to reach a predetermined size (e.g., 1,000 mm^3), and where C=mean time (in days) for the control group tumors to reach a predetermined size.
To compare pairs of treatment groups, the following mixed-effects linear regression model was fit to the data using the maximum likelihood method:
The predicted differences in the log tumor values (Yijk−Yi0k, which can be interpreted as log10 (fold change from day 0)) were taken from the above models to calculate mean AUC values for each treatment group. A dAUC value was then calculated as:
For synergy analyses, the observed differences in the log tumor values were used to calculate AUC values for each animal. […] The AUC for the control, or vehicle, group was calculated using the predicted values from the pairwise models described above.

[8] = Study A, 0.938 mg/kg IV QW × 3 doses
[9] = Study A, 1.875 mg/kg IV QW × 3 doses
[10] = Study A, 3.75 mg/kg IV QW × 3 doses
[11] = Study A, 7.5 mg/kg IV QW × 3 doses
[12] = Study B, 0.938 mg/kg IV QW × 3 doses
[13] = Study B, 1.875 mg/kg IV QW × 3 doses
[14] = Study B, 3.75 mg/kg IV BIW × 6 doses
[15] = Study B, 3.75 mg/kg IV QW × 3 doses
[16] = Study B, 7.5 mg/kg IV QW × 3 doses
[17] = Study B, 10.0 mg/kg IV QW × 3 doses
[18] = PHTX-21c, ML0264 3.75 mg/kg i.v. QW

Substance: 5F9 vcMMAE: 5F9 mAb conjugated to MMAE using a vc (Val-Cit) linker; average drug loading about 3.6
- day tumors start to re-grow ([1]; PHTX-09c, 7.5 mg/kg and 10 mg/kg): ~40 days
- anti-tumor activity maintained post-dosing ([1]; PHTX-09c, 7.5 mg/kg and 10 mg/kg, last dose on day 15): 3 weeks
- single agent anti-tumor activity ([1]; PHTX-09c, 1.875-10 mg/kg I.V. QW×3 weeks): strong
- T/C ([1]; PHTX-09c, dose 0.938-10 mg/kg, QW, T/C=volume of tumor/control): 0.09
- BW change (mean maximum percent) [1, 8]: 9.0%
- TGD [1, 8]: 3.3 days
- TGI ([1]; Study A, 0.938 mg/kg IV QW × 3 doses, Day 20): 21.4 (p > 0.05) %
- BW change (mean maximum percent) [1, 9]: 10.6%
- TGD [1, 9]: 8.2 days
- TGI ([1]; Study A, 1.875 mg/kg IV QW × 3 doses, Day 20): 44.7 (p > 0.001) %
- BW change (mean maximum percent) [1, 10]: 9.0%
- TGD [1, 10]: 17.8 days
- TGI ([1]; Study A, 3.75 mg/kg IV QW × 3 doses, Day 20): 65.3 (p > 0.001) %
- BW change (mean maximum percent) [1, 11]: 7.5%
- days until first tumor >1000 mm^3 [1, 11]: (>58 days
- TGI ([1]; Study A, 7.5 mg/kg IV QW × 3 doses, Day 20): 84.1 (p > 0.001) %
- BW change (mean maximum percent) [1, 12]: −2.3%
- TGD [1, 12]: 3.8 days
- TGI ([1]; Study B, 0.938 mg/kg IV QW × 3 doses, Day 20): 20.7 (p > 0.001) %
- BW change (mean maximum percent) [1, 13]: 5.6%
- TGD [1, 13]: 6.6 days
- TGI ([1]; Study B, 1.875 mg/kg IV QW × 3 doses, Day 20): 41.3 (p > 0.001) %
- BW change (mean maximum percent) [1, 14]: −1.8%
- TGD [1, 14]: 31.9 days
- TGI ([1]; Study B, 3.75 mg/kg IV BIW × 6 doses, Day 20, 3.75 mg/kg): 84.9 (p > 0.001) %
- BW change (mean maximum percent) [1, 15]: −2.2%
- TGD [1, 15]: 16 days
- TGI ([1]; Study B, 3.75 mg/kg IV QW × 3 doses, Day 20): 65.7 (p > 0.001) %
- BW change (mean maximum percent) [1, 16]: 6.5%
- days until first tumor >1000 mm^3 [1, 16]: (>47 days
- TGI ([1]; Study B, 7.5 mg/kg IV QW × 3 doses, Day 20): 84.3 (p > 0.001) %
- BW change (mean maximum percent) [1, 17]: 7.2%
- days until first tumor >1000 mm^3 [1, 17]: (>56 days
- TGI ([1]; Study B, 10.0 mg/kg IV QW × 3 doses, Day 20, 10 mg/kg): 91.2 (p > 0.001) %
- greatest maximum body weight loss during treatment period ([1]; Study B, day 7, 0.18 mg/kg MMAE group and 0.938 mg/kg 5F9-vcMMAE group): 2.3%
- TGI ([1]; both studies (A and B), 0.938 mg/kg IV QW): 20.7-21.4%
- TGI ([1]; both studies (A and B), 1.875 mg/kg IV QW): 41.3-44.7%
- TGI ([1]; both studies (A and B), 3.75 mg/kg IV QW): 65.3-65.7%
- TGI ([1]; both studies (A and B), 7.5 mg/kg IV QW): 84.1-84.3%
- single agent sensitivity ([2]; 0.9375 mg/kg-10 mg/kg I.V. QW×3 weeks): Moderate sensitivity
- T/C ([2]; dose 0.938-10 mg/kg, QW, T/C=volume of tumor/control): 0.46
- Days to 1000 mm^3 ([3]; PHTX-17c, ML0264 7.5 mg/kg QW): >17 days
- Mean tumor volume ± S.E.M (mm3) ([3]; PHTX-17c, ML0264 7.5 mg/kg QW): 886.1 ± 187.9 mm3
- T/C ([3]; PHTX-17c, ML0264 7.5 mg/kg QW): 0.49
- TGI ([3]; PHTX-17c, ML0264 7.5 mg/kg QW): 51%
- dAUC ([3]; group A: MLN0264 7.5 mg/kg QW, reference vehicle): 28.9%
- single agent anti-tumor activity ([4]; PHTX-21c, 3.75 mg/kg): relatively low anti-tumor activity
- dAUC ([4]; group C: MLN0264 3.75 mg/kg QW): 38.5%
- dAUC ([4]; group D: MLN0264 7.5 mg/kg QW): 74.0%
- tumor growth inhibition ([5]; PHTX-249 Pa, by day 21): significant TGI versus vehicle or free MMAE
- TGI, % ([5]; model PHTX-249, KRAS Mut G12D, QWx3, day 21): 47%
- dAUC (percent decrease in treatment AUC relative to reference group V, vehicle) ([6]; group A: MLN0264 3.75 mg/kg IV QW): 36.3%
- dAUC (percent decrease in treatment AUC relative to reference group V, vehicle) ([6]; group B: MLN0264 7.5 mg/kg IV QW): 75.1%
- single agent anti-tumor activity ([7]; PHTX-21c, 3.75 mg/kg): relatively low anti-tumor activity
- Days to 1000 mm^3 [7, 18]: >15 days
- Mean tumor volume ± S.E.M (mm3) [7, 18]: 869.1 ± 105.2 mm3
- T/C [7, 18]: 0.64
- TGI [7, 18]: 36.3%
- dAUC ([7]; Treated group A (ML0264 3.75 mg/kg) vs reference V (vehicle)): 25.1%
